The test system of one test is Nematostella vectensis. Description: DDR in starlet sea anemones. It counts as in vivo. The conditions noted are these: whole animals; cGAMP in digitonin solution 10 minutes; doxorubicin 2 μM; 16 hours. The source says: Starlet sea anemones: Wild type, laboratory maintained, Self-sustaining Nematostella vectensis culture containing of 3-6 months old male and female animals (Putnam et al., 2007) was a kind gift from Timothy J. Jegla (Penn State University Department of Biology). They were maintained in 6-well plates containing water with Instant Ocean® Aquarium Sea Salt (50 gm/l) and fed brine shrimp. […] Permeabilization solution was removed and the animals returned to maintenance sea salt water. Doxorubicin was added to the maintenance sea salt water to a final concentration of 2 μM. 16 hours post treatment. N. vectensis were collected and washed once with cold PBS before the addition of 200 μl RIPA buffer. Samples were homogenized by sonication and centrifuged at 4° C. to remove debris. Soluble lysates were quantified for protein analysis by western blot.

In the next test the test system is THP1 cells. Description: Alkaline comet assay in THP1 cells. It counts as cell-based, human. The protocol:
Comet assays: DNA damage in individual cells was assessed using OxiSelect™ Comet Assay Kits (Cell Biolabs, Cat #STA-351) according to the manufacturer's protocol. THP1 cells were treated as indicated, collected by centrifugation, washed twice with ice-cold PBS, and resuspended in cold PBS at 1×10^5 cells/ml. Cells were mixed with molten Comet agarose (1:10, v/v) and immediately transferred to wells of the Comet Agarose Base Layer (pre-prepared by adding 75 μl molten agarose to Comet slides) in 75 μl aliquots. Cells were embedded on the agarose by cooling the gel at 4° C. for 15 minutes in the dark and then lysed in pre-chilled lysis buffer for 60 minutes at 4° C. The cell-containing slides were neutralized in pre-chilled alkaline buffer for 30 minutes and then carefully transferred to a horizontal electrophoresis chamber. Electrophoresis was conducted in cold Alkaline Electrophoresis Solution (300 mM NaOH, pH>13, 1 mM EDTA) for 30 minutes at 1 volt/cm (300 mA current). The samples were washed three times in pre-chilled water and immersed in 70% ethanol for 5 minutes. The cells were subsequently air dried and their DNA stained with 100 μl/well of diluted Vista Green DNA Dye. After incubating at room temperature, cells were finally visualized under a fluorescence microscope using an FITC filter. Comet length was quantified using OpenComet software as described before (Gyori et al., 2014).

The subject of a further test is cell cycle progression. Description: Cell cycle analysis by flow cytometry (BrdU, propidium iodide). It counts as cell-based, human. How it is done:
Cells were washed with cold PBS and resuspended in 0.5 ml PBS to achieve a single cell suspension. Cells were fixed in a tube containing 4.5 ml 70% ethanol kept at 4° C. overnight. Cells were collected by centrifugation at 500 g for 5 minutes and washed twice with PBS. Washed cells were then stained with 1 ml of freshly prepared staining solution containing propidium iodide (10 μg/ml), DNase-free RNaseA (100 μg/ml), and 0.1% (v/v) Triton X-100 before being subjected to flow cytometry measurement. To determine percentage of cell population in various cell cycle stage, ˜10,000-30,000 cells were acquired on an Attune NxT cytometer and analyzed using FCS Express software. Cell cycle analysis was performed on propidium iodide stained cells and single cell events were determined by gating on the area against the width of the propidium iodide pulse signal. DNA cell cycle modeling and fit was performed using the Multicycle AV plugin (Phoenix Flow Systems).
Cells were fixed and stained to detect BrdU incorporation by flow cytometry following the manufacturer's protocol (FITC BrdU Flow Kit, BD Biosciences, Cat #559619).
For orientation: In flow cytometry, cells or beads pass a laser one at a time.

For `Nc1nc2c(ncn2[C@@H]2O[C@@H]3COP(=O)(O)O[C@H]4[C@@H](O)[C@H](n5cnc6c(N)ncnc65)O[C@@H]4COP(=O)(O)O[C@@H]2[C@@H]3O)c(=O)[nH]1` [cGAMP, cyclic guanosine monophosphate-adenosine monophosphate], in the test with Nematostella vectensis, the “TBK1 phosphorylation (pTBK1)” value is “TBK1 phosphorylation” and the γH2AX entry is given as “elevated levels of γH2AX”. In addition, the “camptothecin-induced DNA damage (comet tail length)” value in the test with THP1 cells (THP1, cGAMP 6 hours then 1 μM camptothecin 16 hours) is given as “exacerbates camptothecin-induced DNA damage”. For the same compound, in the test with THP1 cells (THP1 cells, cGAMP 16 hours), the “DNA strand breaks in comet assay” value was “no strand breaks were observed”. In the test with cell cycle progression (STING−/−, shTBK1, shIFNAR1, shSTAT2 THP1), the “dependence of cGAMP-induced G1 cell cycle arrest on STING, TBK1, IFNAR1, STAT2” value was “reliant on the former two signaling proteins (i.e. STING and TBK1), but occurs independently of IFNAR and STAT2”. Besides, the “G1 arrest in unperturbed and PARP-inhibited cells” value in the test with cell cycle progression (WT THP1, 10 μM Rucaparib or vehicle, 24 hours) was “promotes G1 arrest in both unperturbed as well as PARP-inhibited cells”. In the test with cell cycle progression (WT THP1, BrdU, 24 hours), the “number of cells in the S-phase” value is “decreased the number of cells in the S-phase” and the “proportion of cells in the G1 phase” value is listed as “substantially increased the proportion of cells arrested in the G1 phase”. Besides, the “cGAMP-induced G1 arrest after p53 knockdown” value with cell cycle progression (shP53 U2OS-STING cells, 24 hours) was “abrogated the cGAMP-induced G1 arrest”.
